Test results: US8026218B2, “Bifunctional analgesic compounds for opioid receptor agonists and neurokinin-1 receptor antagonists” (The University of Arizona, priority 2006, dated 2011)
Read-outs that look alike come from different tables or passages of the source. Peptide text beside a SMILES is read from it.

What was measured:
[1] = biological target: T1, human δ opioid receptors (hDOR) (Homo sapiens, UniProt P41143); assay: Radioligand competition binding, [3H]DPDPE, hDOR membranes
T1 construct: expressed in transfected cells; host or cells: HN9.10 neuroblastoma cell line, pCDNA3, neomycin-selected clones
T1 sequence (P41143 whole entry): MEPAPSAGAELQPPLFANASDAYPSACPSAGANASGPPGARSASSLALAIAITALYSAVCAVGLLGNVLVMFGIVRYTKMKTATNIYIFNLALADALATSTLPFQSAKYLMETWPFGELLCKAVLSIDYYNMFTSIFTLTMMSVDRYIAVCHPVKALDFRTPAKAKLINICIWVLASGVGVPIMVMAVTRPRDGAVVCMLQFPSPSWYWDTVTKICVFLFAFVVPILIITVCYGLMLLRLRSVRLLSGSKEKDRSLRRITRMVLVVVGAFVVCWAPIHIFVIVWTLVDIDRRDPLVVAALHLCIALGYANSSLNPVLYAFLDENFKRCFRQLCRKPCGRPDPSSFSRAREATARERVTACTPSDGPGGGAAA

[2] = biological target: T2, δ opioid receptors (MVD) (Mus musculus, UniProt P32300); assay: Mouse isolated vas deferens (MVD) assay, opioid agonist
T2 construct: from tissue; host or cells: mouse (ICR) isolated vas deferens
T2 sequence (P32300 whole entry): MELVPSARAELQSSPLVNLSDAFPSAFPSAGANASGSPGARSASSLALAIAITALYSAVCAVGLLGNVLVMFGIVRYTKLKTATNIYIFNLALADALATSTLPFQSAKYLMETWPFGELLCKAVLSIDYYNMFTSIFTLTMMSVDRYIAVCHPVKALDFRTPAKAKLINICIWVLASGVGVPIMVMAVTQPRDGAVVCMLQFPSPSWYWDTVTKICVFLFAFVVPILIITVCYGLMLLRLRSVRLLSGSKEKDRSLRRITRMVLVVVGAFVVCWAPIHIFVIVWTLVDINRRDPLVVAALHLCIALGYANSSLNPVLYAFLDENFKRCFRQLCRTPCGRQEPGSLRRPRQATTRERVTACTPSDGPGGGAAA

[3] = biological target: T3, rat μ opioid receptors (rMOR) (Rattus norvegicus, UniProt P33535); assay: biochemical; type: biochemical; conditions: for EC50: read-out: GTP rMOR EC50
T3 construct: expressed in transfected cells; host or cells: HN9.10 neuroblastoma cell line, pCDNA3, neomycin-selected clones
T3 sequence (P33535 whole entry): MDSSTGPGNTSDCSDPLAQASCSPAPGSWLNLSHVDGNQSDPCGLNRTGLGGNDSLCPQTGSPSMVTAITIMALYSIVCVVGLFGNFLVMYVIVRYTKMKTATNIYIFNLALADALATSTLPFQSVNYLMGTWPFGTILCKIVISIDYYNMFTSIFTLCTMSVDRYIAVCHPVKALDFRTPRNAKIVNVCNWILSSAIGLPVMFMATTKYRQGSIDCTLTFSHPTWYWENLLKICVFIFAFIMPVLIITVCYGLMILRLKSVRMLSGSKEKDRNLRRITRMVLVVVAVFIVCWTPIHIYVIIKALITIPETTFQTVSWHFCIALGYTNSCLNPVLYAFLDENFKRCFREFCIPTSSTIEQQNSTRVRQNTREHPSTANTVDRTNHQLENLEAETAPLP

[4] = tested on: μ opioid receptors (GPI); assay: Guinea pig isolated ileum (GPI) assay, opioid agonist;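 further: inhibition of electrically evoked contractions (0.1 Hz, 0.4 msec, supramaximal voltage) in organ baths at 37 °C, contraction height 3 min after each cumulative dose versus the 1 min before dosing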
[5] = biological target: T1, human δ opioid receptors (hDOR); assay: [35S]GTP-γ-S binding assay, hDOR; type: biochemical
[6] = biological target: T4, Substance P receptors (guinea pig NK1) (Cavia porcellus, UniProt P30547); assay: Guinea pig isolated ileum (GPI) assay with substance P stimulation in presence of 1 μM naloxone
T4 construct: from tissue; host or cells: guinea pig (Hartley) ileum LMMP, 1 μM naloxone present
T4 sequence (P30547 whole entry): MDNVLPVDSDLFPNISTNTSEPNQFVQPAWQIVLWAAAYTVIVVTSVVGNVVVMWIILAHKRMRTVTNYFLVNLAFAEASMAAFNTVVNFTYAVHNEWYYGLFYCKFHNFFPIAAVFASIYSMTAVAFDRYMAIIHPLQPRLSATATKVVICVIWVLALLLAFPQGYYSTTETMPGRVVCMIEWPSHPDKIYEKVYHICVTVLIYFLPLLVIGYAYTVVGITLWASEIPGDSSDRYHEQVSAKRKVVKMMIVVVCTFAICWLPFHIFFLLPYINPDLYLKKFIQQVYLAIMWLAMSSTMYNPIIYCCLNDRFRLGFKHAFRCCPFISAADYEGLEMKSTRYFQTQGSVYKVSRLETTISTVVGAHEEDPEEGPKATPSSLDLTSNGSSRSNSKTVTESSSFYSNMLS

[7] = biological target: T5, human NK1 receptor (hNK1) (Homo sapiens, UniProt P25103); assay: Radioligand competition binding, [3H]-Substance P, hNK1
T5 construct: expressed in transfected cells
T5 sequence (P25103 whole entry): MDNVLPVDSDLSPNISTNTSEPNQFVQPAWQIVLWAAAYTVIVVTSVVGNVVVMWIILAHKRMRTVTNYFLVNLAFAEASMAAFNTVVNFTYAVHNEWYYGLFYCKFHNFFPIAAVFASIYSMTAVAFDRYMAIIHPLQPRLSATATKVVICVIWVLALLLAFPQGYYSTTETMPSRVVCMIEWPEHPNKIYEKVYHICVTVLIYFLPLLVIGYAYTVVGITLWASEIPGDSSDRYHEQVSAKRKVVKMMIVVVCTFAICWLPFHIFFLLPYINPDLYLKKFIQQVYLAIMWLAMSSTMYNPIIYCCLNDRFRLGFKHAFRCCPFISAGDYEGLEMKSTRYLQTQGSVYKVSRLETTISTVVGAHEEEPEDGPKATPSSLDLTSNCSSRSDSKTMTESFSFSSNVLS

[8] = biological target: T6, rat NK1 (rNK1) receptor (Rattus norvegicus, UniProt P14600); assay: Radioligand competition binding, [3H]substance P, rNK1/CHO membranes
T6 construct: expressed in transfected cells; host or cells: CHO (rNK-1/CHO cell line from Dr. James Krause)
T6 sequence (P14600 whole entry): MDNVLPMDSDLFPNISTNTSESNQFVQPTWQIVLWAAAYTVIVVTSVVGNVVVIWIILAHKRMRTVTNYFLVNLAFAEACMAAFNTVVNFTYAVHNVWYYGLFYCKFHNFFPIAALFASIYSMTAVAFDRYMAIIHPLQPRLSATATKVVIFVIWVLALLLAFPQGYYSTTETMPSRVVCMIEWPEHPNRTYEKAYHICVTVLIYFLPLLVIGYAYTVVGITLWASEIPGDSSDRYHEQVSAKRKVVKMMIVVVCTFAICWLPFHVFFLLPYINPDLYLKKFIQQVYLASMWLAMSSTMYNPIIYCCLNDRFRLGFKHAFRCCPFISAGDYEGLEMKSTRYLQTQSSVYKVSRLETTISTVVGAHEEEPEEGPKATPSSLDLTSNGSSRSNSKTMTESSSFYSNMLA

[9] = Table 32, read-out: GTP rMOR EMax
[10] = Table 35, read-out: GPI/LMMP μ-agonist IC50
[11] = Table 32, read-out: GTP hDOR EC50
[12] = Table 32, read-out: GTP hDOR EMax
[13] = GPI/LMMP SP antagonist Ke (nM), Table 35
[14] = Table 36, read-out: GPI μ-agonist IC50
[15] = GPI SP-antagonist Ke (nM), Table 36
[16] = Substance P antagonist, GPI, Ke, in the presence of 1 μM naloxone
[17] = Table 39, read-out: GTP binding rMOR Emax
[18] = Table 39, read-out: GTP binding hDOR Emax
[19] = Table 39, read-out: GPI/LMMP opioid(mu) agonist (IC50; nM)
[20] = Table 39, read-out: GTP binding hDOR EC50

C[C@H](NC(=O)[C@H](Cc1ccccc1)NC(=O)CNC(=O)[C@@H](C)NC(=O)[C@@H](N)Cc1ccc(O)cc1)C(=O)N[C@@H](Cc1c[nH]c2ccccc12)C(=O)OCc1cc(C(F)(F)F)cc(C(F)(F)F)c1 [NP31] (HELM PEPTIDE1{Y.[dA].G.F.A.W.[FC(F)(F)c1cc(CO[*:1])cc(C(F)(F)F)c1]}$$$$V2.0; N-terminus assumed)
Ki [1]: 1.2 nM | IC50 [2]: 6.4 nM | EC50 ([3]; Table 32): 11 nM | Emax [3, 9]: 50% | IC50 [4, 10]: 401 nM | EC50 [5, 11]: 3.3 nM | Emax [5, 12]: 91% | Kb [6, 13]: 18.6 nM

CC[C@H](NC(=O)[C@H](Cc1ccccc1)NC(=O)CNC(=O)[C@@H](C)NC(=O)[C@@H](N)Cc1ccc(O)cc1)C(=O)N[C@@H](Cc1c[nH]c2ccccc12)C(=O)OCc1cc(C(F)(F)F)cc(C(F)(F)F)c1 [NP33] (HELM PEPTIDE1{Y.[dA].G.F.[Abu].W.[FC(F)(F)c1cc(CO[*:1])cc(C(F)(F)F)c1]}$$$$V2.0; N-terminus assumed)
Ki [1]: 1.6 nM | IC50 [2]: 12.4 nM | EC50 ([3]; Table 32): 8.6 nM | Emax [3, 9]: 32% | IC50 [4, 10]: 600 nM | EC50 [5, 11]: 2.9 nM | Emax [5, 12]: 43% | Kb [6, 13]: 5.6 nM

C[C@@H](NC(=O)[C@@H](N)Cc1ccc(O)cc1)C(=O)NCC(=O)N[C@@H](Cc1ccccc1)C(=O)NCCCC(=O)N[C@@H](Cc1c[nH]c2ccccc12)C(=O)OCc1cc(C(F)(F)F)cc(C(F)(F)F)c1 [NP34] (HELM PEPTIDE1{Y.[dA].G.F.[O=C(CCCN[*:1])[*:2]].W.[FC(F)(F)c1cc(CO[*:1])cc(C(F)(F)F)c1]}$$$$V2.0; N-terminus assumed)
Ki [7]: 0.001 nM | IC50 [2]: 67.9 nM | EC50 ([3]; Table 32): 17.4 nM | Emax [3, 9]: 27% | IC50 [4, 10]: 200 nM | EC50 [5, 11]: 16.5 nM | Emax [5, 12]: 40% | Kb [6, 13]: 0.96 nM

C[C@@H](NC(=O)[C@@H](N)Cc1ccc(O)cc1)C(=O)NCC(=O)N[C@@H](Cc1ccccc1)C(=O)N1CCC[C@H]1C(=O)N[C@@H](Cc1c[nH]c2ccccc12)C(=O)OCc1cc(C(F)(F)F)cc(C(F)(F)F)c1 [NP39] (HELM PEPTIDE1{Y.[dA].G.F.P.W.[FC(F)(F)c1cc(CO[*:1])cc(C(F)(F)F)c1]}$$$$V2.0; N-terminus assumed)
Ki [7]: 0.1 nM | IC50 [4, 10]: 259 nM

C[C@@H](NC(=O)[C@@H](N)Cc1ccc(O)cc1)C(=O)NCC(=O)N[C@@H](Cc1ccccc1)C(=O)NC(C)(C)C(=O)N[C@@H](Cc1c[nH]c2ccccc12)C(=O)OCc1cc(C(F)(F)F)cc(C(F)(F)F)c1 [NP41] (HELM PEPTIDE1{Y.[dA].G.F.[Aib].W.[FC(F)(F)c1cc(CO[*:1])cc(C(F)(F)F)c1]}$$$$V2.0; N-terminus assumed)
Ki [7]: 0.008 nM | Ki ([8]; Affinity (Ki, nM) rNK1, Table 32): 3.4 nM | IC50 [2]: 36.2 nM | EC50 ([3]; Table 32): 105 nM | Emax [3, 9]: 36% | EC50 [5, 11]: 37.7 nM | Emax [5, 12]: 65%

N[C@@H](Cc1ccc(O)cc1)C(=O)NCC(=O)N[C@@H](Cc1c[nH]c2ccccc12)C(=O)OCc1cc(C(F)(F)F)cc(C(F)(F)F)c1 [NP42]
Ki [7]: 0.003 nM | Ki ([8]; Ki (nM) rNK1, Table 33): 0.36 nM | MVD δ-agonist, % at 1 μM ([2]; Table 36, at 1 μM): 7.5% at 1 μM | GPI μ-agonist, % at 1 μM ([4]; Table 36, at 1 μM): 2.6% at 1 μM | GPI SP-antagonist activity @ 1 μM ([6]; Table 36, @ 1 μM): None @ 1 μM

C[C@@H](NC(=O)[C@@H](N)Cc1ccc(O)cc1)C(=O)NCC(=O)N[C@@H](Cc1c[nH]c2ccccc12)C(=O)OCc1cc(C(F)(F)F)cc(C(F)(F)F)c1 [NP44] (HELM PEPTIDE1{Y.[dA].G.W.[FC(F)(F)c1cc(CO[*:1])cc(C(F)(F)F)c1]}$$$$V2.0; N-terminus assumed)
Ki ([8]; Ki (nM) rNK1, Table 33): 3.4 nM | IC50 [2]: 303 nM | IC50 [4, 14]: 844 nM | Kb [6, 15]: 5 nM

C[C@@H](NC(=O)[C@@H](N)Cc1ccc(O)cc1)C(=O)NCC(=O)N[C@@H](Cc1ccc(F)cc1)C(=O)OCc1cc(C(F)(F)F)cc(C(F)(F)F)c1 [NP62]
Ki [7]: 0.2 nM | IC50 [2]: 184 nM | IC50 [4, 14]: 208 nM | Kb [6, 15]: 51.8 nM

CC(C)C[C@H](NC(=O)[C@@H]1CCCN1C(=O)[C@H](Cc1ccccc1)NC(=O)CNC(=O)[C@@H](C)NC(=O)[C@@H](N)Cc1ccc(O)cc1)C(=O)N[C@@H](Cc1c[nH]c2ccccc12)C(=O)OCc1cc(C(F)(F)F)cc(C(F)(F)F)c1 [TY001, H-Tyr-DAla-Gly-Phe-Pro-Leu-Trp-O-3,5-Bzl(CF3)2]
IC50 [7]: 0.00501 nM | Ki [7]: 0.0023 nM | species difference between affinities at rNK1 and hNK1 ([7]; Ki rNK1 vs Ki hNK1): 700 fold | Ki ([8]; Affinity rNK1 (Ki; nM), Table 39): 1.56 nM | IC50 ([8]; LogIC50, rNK1, [3H]Substance P, Table 6, logarithm of IC50 (negative), CHO cell membranes): 5.01 nM | Ki ([8]; read-out: Ki, rNK1): 1.6 nM | Kb [6, 16]: 3.6 ± 1.1 nM

CC(C)C[C@H](NC(=O)[C@@H]1CCCN1C(=O)[C@H](Cc1ccccc1)NC(=O)[C@H](Cc1ccccc1)NC(=O)CNC(=O)[C@@H](C)NC(=O)[C@@H](N)Cc1ccc(O)cc1)C(=O)N[C@@H](Cc1c[nH]c2ccccc12)C(=O)OCc1ccccc1 [TY014] (HELM PEPTIDE1{Y.[dA].G.F.F.P.L.W.[c1ccc(CO[*:1])cc1]}$$$$V2.0; N-terminus assumed)
Ki [1]: 11.5 nM | Emax [3, 17]: 72.3% | Emax [5, 18]: 137%

CCCC[C@H](NC(=O)[C@H](Cc1ccccc1)NC(=O)CNC(=O)[C@@H](C)NC(=O)[C@@H](N)Cc1ccc(O)cc1)C(=O)N1CCC[C@H]1C(=O)N[C@@H](CC(C)C)C(=O)N[C@@H](Cc1c[nH]c2ccccc12)C(=O)OCc1cc(C(F)(F)F)cc(C(F)(F)F)c1 [TY018, H-Tyr-D-Ala-Gly-Phe-Nle-Pro-Leu-Trp-O-3,5-Bzl(CF3)2]
Ki ([8]; Ki, rNK1, text): 14.8 nM | IC50 ([8]; LogIC50, rNK1, Substance P radioligand, membranes from transfected CHO cells): 13.5 nM | LogIC50, hDOR, [3H]DPDPE ([1]; membranes from transfected HN9.10 cells): −8.42 ± 0.15 | IC50 [2]: 16.8 ± 2.4 nM | IC50 ([2]; Table 39, read-out: MVD opioid(delta) agonist (IC50; nM)): 16.8 nM | IC50 ([4]; Table 28, read-out: GPI/LMMP Opioid(m) Agonist (IC50; nM)): 372 nM | IC50 [4, 19]: 372 nM | IC50 ([4]; electrically stimulated isolated tissue, read-out: GPI (μ), IC50): 372 ± 65 nM | LogEC50, hDOR, [35S]GTP-γ-S binding [5]: −8.40 ± 0.11 | EC50 ([5]; Table 27, read-out: GTP binding hDOR EC50): 4 nM | Emax ([5]; Table 27, read-out: GTP binding hDOR Emax (%)): 131% | EC50 [5, 20]: 4 nM | Emax [5, 18]: 131% | Emax ([5]; net total bound/basal binding × 100, read-out: Emax, hDOR, [35S]GTP-γ-S binding): 129% | EC50 ([5]; read-out: EC50, hDOR, [35S]GTP-γ-S binding): 4 nM | Kb [6, 16]: 7.9 ± 1.9 nM | activation at 1 µM ([6]; read-out: Substance P GPI agonist (A50), at 1 μM, contraction relative to initial muscle contraction with KCl): 0%

CSCC[C@H](NC(=O)[C@H](Cc1ccccc1)NC(=O)CNC(=O)[C@@H](C)NC(=O)[C@@H](N)Cc1ccc(O)cc1)C(=O)N1CCC[C@H]1C(=O)N[C@@H](CC(C)C)C(=O)N[C@@H](Cc1c[nH]c2ccccc12)C(=O)N(C)Cc1ccccc1 [TY026]
Ki [7]: 0.001 nM | IC50 [2]: 7.89 nM | IC50 [4, 19]: 86.7 nM | Emax [5, 18]: 93%

CSCC[C@H](NC(=O)[C@H](Cc1ccccc1)NC(=O)CNC(=O)[C@@H](C)NC(=O)[C@@H](N)Cc1ccc(O)cc1)C(=O)N1CCC[C@H]1C(=O)N[C@@H](CC(C)C)C(=O)N[C@@H](Cc1c[nH]c2ccccc12)C(=O)OCc1ccccc1 [TY029]
Ki [1]: 1.3 nM | IC50 [2]: 7.62 nM | Emax [3, 17]: 133% | IC50 [4, 19]: 22.2 nM | EC50 [5, 20]: 3.4 nM | Emax [5, 18]: 98%

CSCC[C@H](NC(=O)[C@H](Cc1ccccc1)NC(=O)CNC(=O)[C@@H](C)NC(=O)[C@@H](N)Cc1ccc(O)cc1)C(=O)N1CCC[C@H]1C(=O)N[C@@H](CC(C)C)C(=O)N[C@@H](Cc1c[nH]c2ccccc12)C(=O)O [TY043]
Ki [1]: 1.1 nM | IC50 [2]: 8.18 nM | Emax [3, 17]: 36% | IC50 [4, 19]: 272 nM | Emax [5, 18]: 62% | GPI/LMMP SP antagonist (Ke; nM) ([6]; Table 39): no shift

CCCC[C@H](NC(=O)[C@H](Cc1ccccc1)NC(=O)CNC(=O)[C@@H](C)NC(=O)[C@@H](N)Cc1c(C)cc(O)cc1C)C(=O)N1CCC[C@H]1C(=O)N[C@@H](CC(C)C)C(=O)N[C@@H](Cc1c[nH]c2ccccc12)C(=O)NCc1cccc(C(F)(F)F)c1 [TY053]
Ki [7]: 1.04 nM | Emax [3, 17]: 20%
